The subject of one data set is A549. Briefly: Cytotoxicity evaluation against A549/ATCC non-small-cell lung cancer cells. In kind it is functional. Particulars: Homo sapiens.
The next data set relates to K562. Kind of data set: Cytotoxicity evaluation against K-562 Leukemia cells. Type of data set: functional. The settings on record: Homo sapiens.
The subject of the next data set is MDA-MB-435. Kind of data set: Cytotoxicity evaluation against MDA-MB-435 breast cancer cells. Type of data set: functional. Particulars: Homo sapiens.
A further data set relates to HCT-15. Briefly: Cytotoxicity evaluation against HCT-15 colon cancer cells. Type of data set: functional. The settings on record: Homo sapiens.
In a further data set the test system is MOLT-4. Kind of data set: Cytotoxicity evaluation against MOLT-4 Leukemia cells. Type of data set: functional. The settings on record: Homo sapiens.
The test system of another data set is UACC-62. Briefly: Cytotoxicity evaluation against UACC-62 melanoma cells. Type of data set: functional. The settings on record: Homo sapiens.
The next data set relates to SF-539. Briefly: Cytotoxicity evaluation against SF-539 CNS cancer cells. Type of data set: functional. Particulars: Homo sapiens.
The subject of another data set is HT-29. Kind of data set: Cytotoxicity evaluation against HT-29 colon cancer cells. Type of data set: functional. The settings on record: Homo sapiens.
For another data set, the system named is CCRF-CEM. Kind of data set: Growth inhibition of CCRF-CEM Human Leukemia Cell was determined. In kind it is functional, cell-based.
Data set [1] concerns the target Dihydrofolate reductase (Homo sapiens) (UniProt P00374). Kind of data set: Compound was evaluated as inhibitor of human Dihydrofolate reductase. The settings on record: concentration not given here.
A further data set relates to UACC-257. Briefly: Cytotoxicity evaluation against UACC-257 melanoma cells. Type of data set: functional. The settings on record: Homo sapiens.
The subject of another data set is NCI-H226. Briefly: Cytotoxicity evaluation against NCI-H226 non-small-cell lung cancer cells. In kind it is functional. The settings on record: Homo sapiens.
The test system of the next data set is SW-620. Kind of data set: Cytotoxicity evaluation against SW-620 colon cancer cells. In kind it is functional. The settings on record: Homo sapiens.
Another data set concerns HL-60. Briefly: Cytotoxicity evaluation against HL-60 Leukemia cells. Type of data set: functional. Particulars: Homo sapiens.
Data set [2] has as its target Thymidylate synthase (Homo sapiens, UniProt P04818). Kind of data set: Compound was evaluated as inhibitor of human thymidylate synthase.
A further data set deals with MCF7. Kind of data set: Cytotoxicity evaluation against MCF-7 breast cancer cells. Type of data set: functional. Particulars: Homo sapiens.
The next data set relates to SN12C. Kind of data set: Cytotoxicity evaluation against SN12C renal cancer cells. Particulars: Homo sapiens. In kind it is functional.
The test system of the next data set is OVCAR-4. Kind of data set: Cytotoxicity evaluation against OVCAR-4 cells. Particulars: Homo sapiens. In kind it is functional.
For another data set, the system named is ACHN. Briefly: Cytotoxicity evaluation against ACHN renal cancer cells. Type of data set: functional. The settings on record: Homo sapiens.
In another data set the test system is R1-CCRF-CEM. Briefly: Growth inhibition of MTX-resistant subline R1-CCRF-CEM Human Leukemia Cell was determined. Type of data set: functional, cell-based.
The next data set deals with LOX IMVI. Kind of data set: Cytotoxicity evaluation against LOX IMVI melanoma cells. Type of data set: functional. Particulars: Homo sapiens.
The subject of a further data set is R2-CCRF-CEM. Briefly: Growth inhibition of MTX-resistant subline R2-CCRF-CEM Human Leukemia Cell was determined. In kind it is functional, cell-based.
The next data set has as its system R30dm-CCRF-CEM. Kind of data set: Growth inhibition of MTX-resistant subline R30dm-CCRF-CEM Human Leukemia Cell was determined. Type of data set: functional, cell-based.
Another data set has as its system NCI-H460. Briefly: Cytotoxicity evaluation against NCI-H460 non-small-cell lung cancer cells. In kind it is functional. Particulars: Homo sapiens.
In data set [3] the target is Thymidylate synthase (Lactobacillus casei, UniProt P00469). Briefly: Compound was evaluated as inhibitor of Lactobacillus casei thymidylate synthase. Also on record: species or system Lacticaseibacillus casei.
For another data set, the system named is MDA-N. Kind of data set: Cytotoxicity evaluation against […] breast cancer cells. In kind it is functional. The settings on record: Homo sapiens.
The target in data set [4] is Thymidylate synthase (Escherichia coli, UniProt C3SWJ7). Kind of data set: Compound was evaluated as inhibitor of Escherichia coli thymidylate synthase.
The target in a further data set is Dihydrofolate reductase (Homo sapiens, UniProt P00374).
Substrate in data set [5]: Cc1nc(N)nc2[nH]cc(CCc3ccc(C(=O)N[C@@H](CCC(=O)O)C(=O)O)cc3)c12
Briefly: (§1) Activity of compound calculated as maximum activity of substrate for human Folyl-polyglutamate synthase relative to the maximum activity for aminopterin.

Substrate in data set [6]: CCc1[nH]c(N)nc2nc(C)c(CCc3ccc(C(=O)N[C@@H](CCC(=O)O)C(=O)O)cc3)c1-2
The data set is described as §1.

Substrate in data set [7]: CCc1[nH]c(N)nc2ncc(CCc3ccc(C(=O)N[C@@H](CCC(=O)O)C(=O)O)cc3)c1-2
The description is as §1.

Substrate in data set [8]: Nc1nc(N)c2nc(CNc3ccc(C(=O)N[C@@H](CCC(=O)O)C(=O)O)cc3)cnc2n1
The data set is described as §1.

Substrate in data set [9]: CCc1[nH]c(N)nc2nc(C)c(CCc3ccc(C(=O)N[C@@H](CCC(=O)O)C(=O)O)cc3)c1-2
Briefly: (§2) Activity of compound calculated as Km was tested as substrate for human Folyl-polyglutamate synthase.

Substrate in data set [10]: CCc1[nH]c(N)nc2ncc(CCc3ccc(C(=O)N[C@@H](CCC(=O)O)C(=O)O)cc3)c1-2
The data set is described as §2.

The source of these data is ChEMBL document CHEMBL1145967, “Design, synthesis, and biological activities of classical N-[4-[2-(2-amino-4-ethylpyrrolo[2,3-d]pyrimidin-5-yl)ethyl]benzoyl]-l-glutamic acid and its 6-methyl derivative as potential dual inhibitors of thymidylate synthase and dihydrofolate reductase and as potential antitumor agents” (J Med Chem, 2003).

Thymidylate synthase (Homo sapiens, UniProt P04818), sequence (P04818 whole entry): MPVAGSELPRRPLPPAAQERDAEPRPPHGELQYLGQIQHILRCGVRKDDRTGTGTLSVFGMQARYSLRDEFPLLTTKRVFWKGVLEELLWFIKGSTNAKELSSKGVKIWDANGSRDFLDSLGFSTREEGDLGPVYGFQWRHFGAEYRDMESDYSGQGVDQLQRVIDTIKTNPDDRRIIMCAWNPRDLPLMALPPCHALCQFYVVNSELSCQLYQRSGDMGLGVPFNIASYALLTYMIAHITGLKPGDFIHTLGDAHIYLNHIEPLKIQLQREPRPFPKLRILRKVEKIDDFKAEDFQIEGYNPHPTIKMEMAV
Thymidylate synthase (Lactobacillus casei, UniProt P00469), sequence (P00469 whole entry): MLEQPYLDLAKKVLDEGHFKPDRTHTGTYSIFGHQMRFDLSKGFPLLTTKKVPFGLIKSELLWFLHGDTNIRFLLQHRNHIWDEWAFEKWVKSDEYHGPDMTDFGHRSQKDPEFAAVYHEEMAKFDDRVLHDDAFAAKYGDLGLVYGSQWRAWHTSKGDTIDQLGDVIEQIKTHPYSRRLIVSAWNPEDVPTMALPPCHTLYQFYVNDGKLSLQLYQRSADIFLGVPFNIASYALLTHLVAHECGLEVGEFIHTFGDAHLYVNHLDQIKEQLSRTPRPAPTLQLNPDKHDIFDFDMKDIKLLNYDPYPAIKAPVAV
Thymidylate synthase (Escherichia coli, UniProt C3SWJ7), sequence (C3SWJ7 whole entry): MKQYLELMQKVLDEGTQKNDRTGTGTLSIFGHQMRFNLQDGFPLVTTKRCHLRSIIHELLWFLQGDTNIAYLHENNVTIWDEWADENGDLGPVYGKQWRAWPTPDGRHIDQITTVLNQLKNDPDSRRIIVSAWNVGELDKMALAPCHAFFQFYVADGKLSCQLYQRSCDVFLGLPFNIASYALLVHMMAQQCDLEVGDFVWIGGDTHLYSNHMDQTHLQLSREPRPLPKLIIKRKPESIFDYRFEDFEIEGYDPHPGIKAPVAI
Dihydrofolate reductase (Homo sapiens), sequence (P00374 whole entry): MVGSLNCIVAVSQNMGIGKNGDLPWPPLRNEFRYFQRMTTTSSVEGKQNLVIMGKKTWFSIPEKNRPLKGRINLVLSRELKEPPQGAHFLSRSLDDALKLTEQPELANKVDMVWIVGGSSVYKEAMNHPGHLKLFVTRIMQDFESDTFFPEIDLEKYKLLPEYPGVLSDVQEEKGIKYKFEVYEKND
Dihydrofolate reductase, sequence (P00374 whole entry): as above

As a reminder, the GI50 is the concentration giving 50% growth inhibition. Usually EC50 stands for the concentration that produces a half-maximal response. As a reminder, the inhibition is the drop in the measured response relative to a control, in per cent. Read a high inhibition as strong suppression. Broadly, the IC50 is the concentration that inhibits the measured activity by half. Low values mean greater potency, high ones weaker potency. Regarding `CCc1[nH]c(N)nc2nc(C)c(CCc3ccc(C(=O)N[C@@H](CCC(=O)O)C(=O)O)cc3)c1-2`, the GI50 is > 100000 nM with A549; 143 nM in the data set with K562; > 100000 nM in the data set with MDA-MB-435; > 100000 nM in the data set with HCT-15; 100 nM in the data set with MOLT-4; > 100000 nM in the data set on UACC-62. The GI50 with SF-539 is > 100000 nM; with HT-29, > 100000 nM; in the data set on UACC-257 it was > 100000 nM; in the data set on NCI-H226, > 100000 nM; with SW-620, > 100000 nM; with HL-60, < 10 nM. In addition, the GI50 is > 100000 nM in the data set on MCF7; > 100000 nM in the data set with SN12C; > 100000 nM in the data set with OVCAR-4; > 100000 nM in the data set on ACHN; 98600 nM in the data set on LOX IMVI; > 100000 nM in the data set on NCI-H460. For the same molecule, in the data set with MDA-N, the 50% growth inhibitory concentration (GI50) is > 100000 nM. In addition, the concentration for a half-maximal effect (EC50) in the data set with CCRF-CEM was > 10000 nM; in the data set on R1-CCRF-CEM, > 20000 nM; in the data set with R2-CCRF-CEM, > 10000 nM; with R30dm-CCRF-CEM, > 20000 nM. The molecule also displayed an inhibition in data set [1] of 14%. The IC50 at Thymidylate synthase [2] is 9000 nM; against Thymidylate synthase [3], > 100000 nM.
Turning to `CCc1nc(N)nc2[nH]cc(CCc3ccc(C(=O)N[C@@H](CCC(=O)O)C(=O)O)cc3)c12`, the GI50 in the data set on A549 was < 10 nM; with K562, < 10 nM; in the data set on MDA-MB-435, < 10 nM; in the data set on HCT-15, < 10 nM; with MOLT-4, > 100000 nM; in the data set on UACC-62 it was < 10 nM. The GI50 in the data set on SF-539, in the data set with HT-29, in the data set with UACC-257, with NCI-H226, with SW-620 and in the data set on HL-60 was < 10 nM each time. Further, the GI50 in the data set on MCF7 was < 10 nM; with SN12C, < 10 nM; in the data set with OVCAR-4, < 10 nM; with ACHN, 169 nM; in the data set on LOX IMVI, < 10 nM; in the data set on NCI-H460, < 10 nM. For the same molecule, the GI50 in the data set on MDA-N was < 10 nM. In addition, the EC50 with CCRF-CEM stood at 15 nM; with R1-CCRF-CEM, 695 nM; in the data set on R2-CCRF-CEM, 750 nM; with R30dm-CCRF-CEM, 18.5 nM. Also, the IC50 on Thymidylate synthase [2] and on Thymidylate synthase [4] was 80000 nM each time.
As to `Cc1nc(N)nc2[nH]cc(CCc3ccc(C(=O)N[C@@H](CCC(=O)O)C(=O)O)cc3)c12`, the GI50 in the data set with K562 is 14700 nM; with MDA-MB-435, > 100000 nM; in the data set with HCT-15, > 100000 nM; in the data set with UACC-62, > 100000 nM; with HT-29 it was > 100000 nM; in the data set on UACC-257, > 100000 nM. Besides, the GI50 in the data set with SW-620 is > 100000 nM; in the data set on HL-60, < 10 nM; with SN12C, > 100000 nM; with OVCAR-4, > 100000 nM; with LOX IMVI, 11500 nM; with MDA-N, > 100000 nM. This molecule also had an IC50 at Dihydrofolate reductase of 1200 nM. The 50% effective concentration (EC50) is 158 nM in the data set with R1-CCRF-CEM, 575 nM in the data set on R2-CCRF-CEM and 18.5 nM with R30dm-CCRF-CEM.
`CN(Cc1cnc2nc(N)nc(N)c2n1)c1ccc(C(=O)N[C@@H](CCC(=O)O)C(=O)O)cc1` [METHOTREXATE]: the concentration giving a half-maximal response (EC50) in the data set on R1-CCRF-CEM amounted to 985 nM; in the data set with R2-CCRF-CEM, 2630 nM; in the data set on R30dm-CCRF-CEM, 12.8 nM.

B1: Folylpolyglutamate synthase, mitochondrial (Homo sapiens), Q05932 (protein)
chain: MSRARSHLRAALFLAAASARGITTQVAARRGLSAWPVPQEPSMEYQDAVRMLNTLQTNAGYLEQVKRQRGDPQTQLEAMELYLARSGLQVEDLDRLNIIHVTGTKGKGSTCAFTECILRSYGLKTGFFSSPHLVQVRERIRINGQPISPELFTKYFWRLYHRLEETKDGSCVSMPPYFRFLTLMAFHVFLQEKVDLAVVEVGIGGAYDCTNIIRKPVVCGVSSLGIDHTSLLGDTVEKIAWQKGGIFKQGVPAFTVLQPEGPLAVLRDRAQQISCPLYLCPMLEALEEGGPPLTLGLEGEHQRSNAALALQLAHCWLQRQDRHGAGEPKASRPGLLWQLPLAPVFQPTSHMRLGLRNTEWPGRTQVLRRGPLTWYLDGAHTASSAQACVRWFRQALQGRERPSGGPEVRVLLFNATGDRDPAALLKLLQPCQFDYAVFCPNLTEVSSTGNADQQNFTVTLDQVLLRCLEHQQHWNHLDEEQASPDLWSAPSPEPGGSASLLLAPHPPHTCSASSLVFSCISHALQWISQGRDPIFQPPSPPKGLLTHPVAHSGASILREAAAIHVLVTGSLHLVGGVLKLLEPALSQ
In general, Km refers to the substrate concentration at which the rate is half of its maximum. Take B1: the relative Vmax in [5] was 0.17; in data set [6], 0.1; in data set [7], 0.23. Besides, the Vmax in data set [8] is 1 µM. For the same molecule, the Michaelis constant (Km) in data set [9] was 96 µM; in [10] it was < 2 µM.
